Here are results for 4 molecules from ChEMBL document CHEMBL5715260, “Selectivity Literature for EUbOPEN Chemogenomic Library” (2024).

Test [1] has as its target Nuclear receptor subfamily 4immunitygroup A member 1 (Homo sapiens) (UniProt P22736). Kind of test: Selectivity interaction (Reporter gene assay) EUB0000572aCl NR4A1. Set-up: recommended concentration 3 uM. (In general: A reporter such as luciferase makes a cellular process visible.)
Test [2] concerns the target T1, Retinoic acid receptor RXR-alpha (Homo sapiens) (UniProt P19793).
T1 sequence (whole entry): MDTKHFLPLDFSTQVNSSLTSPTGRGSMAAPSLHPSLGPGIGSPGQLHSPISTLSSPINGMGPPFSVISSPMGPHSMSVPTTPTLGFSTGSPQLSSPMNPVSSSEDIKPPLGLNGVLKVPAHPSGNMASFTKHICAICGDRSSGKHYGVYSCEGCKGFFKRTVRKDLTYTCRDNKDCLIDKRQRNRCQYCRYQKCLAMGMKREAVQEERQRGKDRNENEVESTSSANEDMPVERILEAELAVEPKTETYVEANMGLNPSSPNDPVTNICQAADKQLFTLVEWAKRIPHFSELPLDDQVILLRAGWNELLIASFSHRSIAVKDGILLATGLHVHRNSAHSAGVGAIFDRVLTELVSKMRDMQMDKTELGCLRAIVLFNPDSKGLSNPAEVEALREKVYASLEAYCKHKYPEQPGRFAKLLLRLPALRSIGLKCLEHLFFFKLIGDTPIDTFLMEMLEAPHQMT
Kind of test: Selectivity interaction (Reporter gene assay) EUB0000572aCl RXRA. The note with it: reference bexarotene 1 uM, Selectivity number of off-targets 0.0, Selectivity number of targets 1.0, Source Knowledge inhouse. Also on record: recommended concentration 3 uM.

Test [3] has as its target T2, Alpha trans-inducing protein (Human alphaherpesvirus 1) (UniProt A0A5J6DW59). Description: Selectivity interaction (Reporter gene assay) EUB0000572aCl UL48. Also on record: recommended concentration 3 uM.
The target of test [4] is Steroidogenic factor 1 (Homo sapiens) (UniProt Q13285). Kind of test: Selectivity interaction (Reporter gene assay) EUB0000572aCl NR5A1. Set-up: recommended concentration 3 uM.
Sequence of Steroidogenic factor 1 (Homo sapiens) (Q13285 whole entry): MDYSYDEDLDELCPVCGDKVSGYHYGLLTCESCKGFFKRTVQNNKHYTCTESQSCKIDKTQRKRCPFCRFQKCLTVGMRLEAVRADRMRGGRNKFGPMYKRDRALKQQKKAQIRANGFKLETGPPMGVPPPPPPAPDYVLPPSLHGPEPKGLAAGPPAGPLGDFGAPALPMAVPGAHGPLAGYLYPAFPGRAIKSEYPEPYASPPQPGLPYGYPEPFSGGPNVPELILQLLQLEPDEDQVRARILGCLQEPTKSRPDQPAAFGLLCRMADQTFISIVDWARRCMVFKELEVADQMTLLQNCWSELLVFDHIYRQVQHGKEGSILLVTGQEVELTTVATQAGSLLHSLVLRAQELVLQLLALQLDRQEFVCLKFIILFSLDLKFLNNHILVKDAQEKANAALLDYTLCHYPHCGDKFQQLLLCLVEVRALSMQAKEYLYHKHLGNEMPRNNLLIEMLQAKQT
The target in test [5] is T3, Hepatocyte nuclear factor 4-alpha (Homo sapiens) (UniProt P41235).
T3 sequence (whole entry): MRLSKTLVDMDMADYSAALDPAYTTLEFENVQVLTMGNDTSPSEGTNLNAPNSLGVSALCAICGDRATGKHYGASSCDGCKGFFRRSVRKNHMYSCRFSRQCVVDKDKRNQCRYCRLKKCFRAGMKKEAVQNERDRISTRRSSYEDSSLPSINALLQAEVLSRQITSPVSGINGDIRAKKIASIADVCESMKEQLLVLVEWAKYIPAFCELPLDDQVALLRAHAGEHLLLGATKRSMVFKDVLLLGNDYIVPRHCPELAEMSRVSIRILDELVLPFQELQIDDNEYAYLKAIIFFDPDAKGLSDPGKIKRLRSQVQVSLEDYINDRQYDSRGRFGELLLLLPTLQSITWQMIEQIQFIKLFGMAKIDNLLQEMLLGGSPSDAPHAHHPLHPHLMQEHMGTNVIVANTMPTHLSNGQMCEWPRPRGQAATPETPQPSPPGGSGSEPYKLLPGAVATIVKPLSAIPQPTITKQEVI
Description: Selectivity interaction (Reporter gene assay) EUB0000572aCl HNF4A. Also on record: recommended concentration 3 uM.

The target in test [6] is Nuclear receptor subfamily 2 group E member 1 (Homo sapiens) (UniProt Q9Y466). Description: Selectivity interaction (Reporter gene assay) EUB0000572aCl NR2E1. Particulars: screened at recom. conc., Selectivity number of off-targets 2.0, Selectivity number of targets 5.0, Source Knowledge inhouse. Also on record: recommended concentration 3 uM.
Sequence of Nuclear receptor subfamily 2 group E member 1 (Homo sapiens) (Q9Y466 whole entry): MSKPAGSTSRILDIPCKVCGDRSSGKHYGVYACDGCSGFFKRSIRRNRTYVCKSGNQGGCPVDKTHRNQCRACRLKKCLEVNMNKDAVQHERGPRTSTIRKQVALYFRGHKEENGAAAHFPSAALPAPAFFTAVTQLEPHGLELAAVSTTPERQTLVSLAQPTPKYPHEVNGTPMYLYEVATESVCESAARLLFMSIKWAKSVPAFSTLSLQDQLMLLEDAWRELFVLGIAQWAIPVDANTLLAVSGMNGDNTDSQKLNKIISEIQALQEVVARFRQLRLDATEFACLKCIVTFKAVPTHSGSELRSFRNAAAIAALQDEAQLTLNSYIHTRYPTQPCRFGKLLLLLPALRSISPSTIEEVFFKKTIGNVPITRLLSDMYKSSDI
For test [7], the target named is T4, Nuclear receptor subfamily 2 group C member 1 (Homo sapiens) (UniProt P13056).
T4 sequence (whole entry): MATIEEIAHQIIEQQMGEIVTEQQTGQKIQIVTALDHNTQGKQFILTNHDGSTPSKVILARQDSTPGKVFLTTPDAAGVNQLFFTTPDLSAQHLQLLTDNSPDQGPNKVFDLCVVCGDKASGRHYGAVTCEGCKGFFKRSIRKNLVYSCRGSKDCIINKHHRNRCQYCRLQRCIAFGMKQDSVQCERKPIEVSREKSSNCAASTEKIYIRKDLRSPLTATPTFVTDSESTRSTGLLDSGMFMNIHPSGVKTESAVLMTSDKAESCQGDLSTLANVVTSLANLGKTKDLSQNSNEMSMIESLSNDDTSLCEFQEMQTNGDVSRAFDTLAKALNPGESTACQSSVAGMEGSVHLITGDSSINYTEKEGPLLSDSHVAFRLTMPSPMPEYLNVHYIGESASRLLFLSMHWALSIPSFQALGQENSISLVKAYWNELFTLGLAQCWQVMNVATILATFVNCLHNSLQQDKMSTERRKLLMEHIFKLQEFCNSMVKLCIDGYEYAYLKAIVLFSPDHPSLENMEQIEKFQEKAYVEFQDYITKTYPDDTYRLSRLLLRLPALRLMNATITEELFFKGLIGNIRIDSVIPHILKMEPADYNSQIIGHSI
Description: Selectivity interaction (Reporter gene assay) EUB0000572aCl NR2C1. Also on record: recommended concentration 3 uM. Particulars: screened at recom. conc., Selectivity number of off-targets 2.0, Selectivity number of targets 5.0, Source Knowledge inhouse.

Test [8] deals with Nuclear receptor subfamily 2 group E member 1 (Homo sapiens) (UniProt Q9Y466). Description: Selectivity interaction (Reporter gene assay) EUB0000576a NR2E1. Set-up: recommended concentration 1 uM.
Test [9] deals with T4, Nuclear receptor subfamily 2 group C member 1 (Homo sapiens). Description: Selectivity interaction (Reporter gene assay) EUB0000576a NR2C1. Set-up: recommended concentration 1 uM.
For test [10], the target named is T1, Retinoic acid receptor RXR-alpha (Homo sapiens). Kind of test: Selectivity interaction (Reporter gene assay) EUB0000576a RXRA. Also on record: recommended concentration 1 uM. The note with it: reference bexarotene 1 uM, Selectivity number of off-targets 0.0, Selectivity number of targets 1.0, Source Knowledge inhouse.
In test [11] the target is Steroidogenic factor 1 (Homo sapiens) (UniProt Q13285). Kind of test: Selectivity interaction (Reporter gene assay) EUB0000576a NR5A1. Also on record: recommended concentration 1 uM.
In test [12] the target is Nuclear receptor subfamily 4immunitygroup A member 1 (Homo sapiens) (UniProt P22736). Description: Selectivity interaction (Reporter gene assay) EUB0000576a NR4A1. Also on record: recommended concentration 1 uM.
Sequence of Nuclear receptor subfamily 4immunitygroup A member 1 (Homo sapiens) (P22736 whole entry): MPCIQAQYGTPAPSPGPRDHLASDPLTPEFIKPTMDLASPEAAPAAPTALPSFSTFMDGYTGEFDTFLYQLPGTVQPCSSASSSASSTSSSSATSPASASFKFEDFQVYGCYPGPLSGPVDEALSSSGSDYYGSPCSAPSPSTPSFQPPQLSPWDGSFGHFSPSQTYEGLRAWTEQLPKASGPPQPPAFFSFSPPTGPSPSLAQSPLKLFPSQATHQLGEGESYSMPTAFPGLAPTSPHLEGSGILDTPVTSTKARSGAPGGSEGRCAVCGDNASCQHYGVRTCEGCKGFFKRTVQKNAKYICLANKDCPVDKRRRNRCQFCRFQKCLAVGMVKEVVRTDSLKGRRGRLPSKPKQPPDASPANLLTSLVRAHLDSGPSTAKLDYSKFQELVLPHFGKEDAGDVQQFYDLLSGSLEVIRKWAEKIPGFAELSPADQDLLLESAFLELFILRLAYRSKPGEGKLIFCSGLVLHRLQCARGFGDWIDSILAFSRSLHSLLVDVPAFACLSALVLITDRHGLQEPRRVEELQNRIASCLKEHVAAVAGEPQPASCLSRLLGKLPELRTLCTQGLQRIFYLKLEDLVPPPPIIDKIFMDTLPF
The target of test [13] is T3, Hepatocyte nuclear factor 4-alpha (Homo sapiens). Description: Selectivity interaction (Reporter gene assay) EUB0000576a HNF4A. Set-up: recommended concentration 1 uM.
The target of test [14] is T2, Alpha trans-inducing protein (Human alphaherpesvirus 1). Kind of test: Selectivity interaction (Reporter gene assay) EUB0000576a UL48. Also on record: recommended concentration 1 uM.
Test [15] concerns the target Nuclear receptor subfamily 2 group E member 1 (Homo sapiens) (UniProt Q9Y466). Description: Selectivity interaction (Reporter gene assay) EUB0000581a NR2E1. Set-up: recommended concentration 1 uM.
Test [16] has as its target Steroidogenic factor 1 (Homo sapiens) (UniProt Q13285). Kind of test: Selectivity interaction (Reporter gene assay) EUB0000581a NR5A1. Also on record: recommended concentration 1 uM.
The target in test [17] is T1, Retinoic acid receptor RXR-alpha (Homo sapiens). Kind of test: Selectivity interaction (Reporter gene assay) EUB0000581a RXRA. Also on record: recommended concentration 1 uM. Particulars: reference bexarotene 1 uM, Selectivity number of off-targets 0.0, Selectivity number of targets 1.0, Source Knowledge inhouse.
Test [18] concerns the target T5, Peroxisome proliferator-activated receptor gamma (Homo sapiens) (UniProt P37231).
T5 sequence (whole entry): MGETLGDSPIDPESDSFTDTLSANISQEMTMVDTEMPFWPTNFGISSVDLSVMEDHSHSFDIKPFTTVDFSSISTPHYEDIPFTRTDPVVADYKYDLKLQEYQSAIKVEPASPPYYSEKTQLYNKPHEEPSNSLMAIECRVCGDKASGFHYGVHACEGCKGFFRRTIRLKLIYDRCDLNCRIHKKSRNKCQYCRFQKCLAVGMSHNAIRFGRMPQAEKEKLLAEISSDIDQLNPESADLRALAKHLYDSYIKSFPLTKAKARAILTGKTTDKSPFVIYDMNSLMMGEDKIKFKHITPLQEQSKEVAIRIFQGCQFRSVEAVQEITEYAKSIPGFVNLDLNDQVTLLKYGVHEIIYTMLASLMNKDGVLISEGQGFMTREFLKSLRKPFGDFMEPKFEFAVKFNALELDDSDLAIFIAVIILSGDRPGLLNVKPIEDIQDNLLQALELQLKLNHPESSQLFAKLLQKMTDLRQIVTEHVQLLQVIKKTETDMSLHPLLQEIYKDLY
Kind of test: Selectivity interaction (Reporter gene assay) EUB0000581a PPARG. Set-up: recommended concentration 1 uM. Particulars: screened at recom. conc., Selectivity number of off-targets 1.0, Selectivity number of targets 19.0, Source Knowledge inhouse.

The target of test [19] is T4, Nuclear receptor subfamily 2 group C member 1 (Homo sapiens). Description: Selectivity interaction (Reporter gene assay) EUB0000581a NR2C1. Also on record: recommended concentration 1 uM.
Test [20] concerns the target T2, Alpha trans-inducing protein (Human alphaherpesvirus 1). Kind of test: Selectivity interaction (Reporter gene assay) EUB0000581a UL48. Set-up: recommended concentration 1 uM.
Test [21] has as its target T3, Hepatocyte nuclear factor 4-alpha (Homo sapiens). Kind of test: Selectivity interaction (Reporter gene assay) EUB0000581a HNF4A. Set-up: recommended concentration 1 uM.
Test [22] concerns the target Nuclear receptor subfamily 4immunitygroup A member 1 (Homo sapiens) (UniProt P22736). Description: Selectivity interaction (Reporter gene assay) EUB0000581a NR4A1. Set-up: recommended concentration 1 uM.
Test [23] concerns the target Steroidogenic factor 1 (Homo sapiens) (UniProt Q13285). Kind of test: Selectivity interaction (Reporter gene assay) EUB0000574a NR5A1. Also on record: recommended concentration 10 uM.
Test [24] has as its target Nuclear receptor subfamily 2 group E member 1 (Homo sapiens) (UniProt Q9Y466). Description: Selectivity interaction (Reporter gene assay) EUB0000574a NR2E1. Also on record: recommended concentration 10 uM.
Test [25] addresses T2, Alpha trans-inducing protein (Human alphaherpesvirus 1). Description: Selectivity interaction (Reporter gene assay) EUB0000574a UL48. Also on record: recommended concentration 10 uM.
The target of test [26] is T4, Nuclear receptor subfamily 2 group C member 1 (Homo sapiens). Description: Selectivity interaction (Reporter gene assay) EUB0000574a NR2C1. Also on record: recommended concentration 10 uM.
Test [27] deals with Nuclear receptor subfamily 4immunitygroup A member 1 (Homo sapiens) (UniProt P22736). Description: Selectivity interaction (Reporter gene assay) EUB0000574a NR4A1. Also on record: recommended concentration 10 uM.
The target in test [28] is T3, Hepatocyte nuclear factor 4-alpha (Homo sapiens). Kind of test: Selectivity interaction (Reporter gene assay) EUB0000574a HNF4A. Also on record: recommended concentration 10 uM.
Test [29] concerns the target T1, Retinoic acid receptor RXR-alpha (Homo sapiens). Kind of test: Selectivity interaction (Reporter gene assay) EUB0000574a RXRA. Set-up: recommended concentration 10 uM. Particulars: reference bexarotene 1 uM, Selectivity number of off-targets 0.0, Selectivity number of targets 1.0, Source Knowledge inhouse.

T2 sequence (A0A5J6DW59 as listed by the source): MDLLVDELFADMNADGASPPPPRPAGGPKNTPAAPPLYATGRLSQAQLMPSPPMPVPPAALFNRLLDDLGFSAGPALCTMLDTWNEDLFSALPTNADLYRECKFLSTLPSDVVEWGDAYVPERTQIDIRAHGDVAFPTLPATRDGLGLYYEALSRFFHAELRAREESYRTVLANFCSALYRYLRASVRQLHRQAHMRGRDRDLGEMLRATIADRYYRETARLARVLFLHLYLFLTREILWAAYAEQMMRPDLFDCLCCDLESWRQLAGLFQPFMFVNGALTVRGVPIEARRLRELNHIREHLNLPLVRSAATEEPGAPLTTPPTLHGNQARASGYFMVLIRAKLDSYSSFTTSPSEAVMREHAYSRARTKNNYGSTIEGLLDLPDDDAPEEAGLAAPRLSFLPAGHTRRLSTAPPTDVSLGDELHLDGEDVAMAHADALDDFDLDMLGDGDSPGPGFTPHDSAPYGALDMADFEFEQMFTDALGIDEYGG

On to `O=C(O)Cc1cccc(OCCCN(Cc2cccc(C(F)(F)F)c2Cl)CC(c2ccccc2)c2ccccc2)c1`, for which the Fold activation in [1] is 1.4; in [4], 1.13; in test [5] it was 1.18; in test [6] it was 1.82; in test [7], 1.98. Also, the Relative activation in test [2] worked out at 0.674%. The same molecule showed a P-value in [3] of 2.13e-05.
On to `CCOP(=O)(OCC)C(=Cc1cc(C(C)(C)C)c(O)c(C(C)(C)C)c1)P(=O)(OCC)OCC`, for which the Remaining activity in test [8] worked out at 0.795; in test [12], 0.959; in test [13], 0.935. The Fold activation in [9] turned out to be 1.37; in test [11], 1.01. This molecule also gave a Relative activation in test [10] of 0.581%. The same molecule registered a P-value in [14] of 0.0136.
For `CC(C)c1ccc(CC(=O)N2CCC[C@@H](c3cccc(OC(C)(C)C(=O)O)c3)C2)cc1`, the Remaining activity in test [15] is 0.846. Also, the Fold activation in [16] was 1.08; in [18], 3.39; in test [19] it was 1.13; in test [21], 1.11; in test [22], 1.08. In test [17], this molecule had a Relative activation of 0.86%. The molecule also returned a P-value in [20] of 0.0017.
Turning to `CO[C@H]1/C=C/O[C@@]2(C)Oc3c(C)c(O)c4c(O)c(c(/C=N/N5CCN(C)CC5)c(O)c4c3C2=O)NC(=O)/C(C)=C\C=C\[C@H](C)[C@H](O)[C@@H](C)[C@@H](O)[C@@H](C)[C@H](OC(C)=O)[C@@H]1C`, the Remaining activity in test [23] was found to be 0.952. For the same molecule, the Fold activation was 1.33 in test [24], 1.14 in [26], 1.04 in test [27] and 1.04 in test [28]. This molecule also came in with a P-value in [25] of 0.000527. In test [29], this molecule showed a Relative activation of 0.683%.
